Measured values from US12421249B2, “Inhibitors of APOL1 and methods of using same” (Vertex Pharmaceuticals Incorporated, priority 2020, dated 2025).
pIC50: −log10 of the molar value. Like-named read-outs stand apart in the source and are kept apart here.

Tests used:
APOL1 G1 = target: T1, APOL1 G1 (Homo sapiens, UniProt O14791, I384M/S342G); experiment: Trypanosoma brucei brucei Lysis Assay Using APOL1 Recombinant Protein (AlamarBlue viability readout); assay type: cell-based; conditions: for pIC50: IP50 = IC50 for cell proliferation, read-out: Trypanosome Assay IP50; for Emax: read-out: Trypanosome Assay Max Activity (%)
T1 sequence (O14791 28-398 S342G/I384M): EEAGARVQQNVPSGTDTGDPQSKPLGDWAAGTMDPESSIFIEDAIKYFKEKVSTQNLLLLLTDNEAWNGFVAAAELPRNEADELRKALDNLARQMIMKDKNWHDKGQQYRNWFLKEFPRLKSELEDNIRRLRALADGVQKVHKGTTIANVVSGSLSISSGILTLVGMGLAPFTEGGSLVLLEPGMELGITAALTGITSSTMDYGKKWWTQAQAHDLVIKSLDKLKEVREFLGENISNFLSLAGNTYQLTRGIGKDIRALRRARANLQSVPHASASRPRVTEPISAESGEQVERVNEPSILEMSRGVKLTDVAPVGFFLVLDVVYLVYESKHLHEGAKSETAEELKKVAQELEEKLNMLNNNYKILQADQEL
Source text: Trypanosoma brucei brucei is a blood stream parasite to which human, gorillas, and baboons are immune due to the presence of the APOL1 protein in their HDL particles. The protein is uptaken by the parasite via the TbHpHb receptor located in its flagellar pocket and is bonded by the Hpr protein contained in the HDL particles which triggers the receptor endocytosis by the parasite.
Following endocytosis, the formed vesicle containing the HDL particle matures from early to late endosome, and subsequently to lysosome. The concomitant pH change in the lumen of the vesicle triggers the insertion of the APOL1 protein into the membrane of the late endosome/lysosome and hereby triggers lysosomal membrane permeabilization and as a further downstream event, trypanosome lysis. Trypanosoma brucei brucei is sensitive to lysis by all three APOL1 variants (G0, G1, and G2).
The Trypanosoma brucei brucei lysis assay is a lysis assay of the parasite using recombinant APOL1 protein variant followed by a fluorescent detection method of viability by the addition of AlamarBlue reagent to the assay well, a general metabolic redox indicator (AlamarBlue assay).
Briefly, the AlamarBlue active compound, resazurin, a blue, water soluble, non-toxic and cell permeable molecule, which can be followed by absorbance, is reduced by various metabolic pathways into resorufin, a red compound which can be followed by either absorbance or fluorescence. The assay allows the calculation of the percent viability (percent of living Trypanosomes remaining in each well) at the end of a lysis relative to the untreated condition by interpolation of fluorescent values (FLU) on a standard curve with a known amount of seeded trypanosome/well.
Trypanosoma brucei brucei (ATCC, Cat. No. PRA-382)
• Lister 427 VSG 221 bloodstream form.
Equipment • E1-Clip Tip pipette 12 channel adjustable 2-125 μL, Cat. No. 4672070BT • ThermoFisher MultiDrop 384, Cat. No. 5840300 • Multidrop • Agilent Bravo, Cat. No. G5409A • Bravo • SpectraMax M5 Assay Ready Plates (ARPs) • ARPs comes in two formats: • […] final top concentration with a 2.5 fold dilution down. • […] final top concentration with a 3 fold dilution down. • Both have a 10 point Dose response. • 0.1% DMSO final in the Black Assay Plate. • Compounds are diluted 1000 fold in the Black Assay Plate. • Each plate is designed for 14 compounds in duplicate. • In the final Black Assay Plate: • Column 1: Media only (no APOL1) (100% viable) • Column 2-23: 0.05 μg/mL APOL1 (˜EC90) (10% viable with APOL1) • Column 24: 0.1 μg/mL APOL1 (EC100) (Approx. […] Step 2, Day 4 • Centrifuge at 800×g for 5 minutes at room temperature. • Resuspend in 1 mL media. • Make a 1:25 fold dilution (10 μL/240 μL media). • Count on a hemocytometer (after adding parasites). • Let sit for 1-2 minutes for the parasites to settle. • Count should be approximately 100 viable motile parasites/16 grid or approximately 25×10^6 parasites/flask. • Passage the parasites by adding 1×10^6 parasites/T75 flask in 20 mL media. • Passage the parasites by adding 2.33×10^6 parasites/T175 flask in 46.6 mL media. • For every T75 flask should make enough for approximately 1.5×384 well assay plates. • For every T175 flask should make enough for approximately 3.8×384 well assay plates. Step 3, Day 6 • Centrifuge at 800×g for 5 minutes. • Resuspend in 3 mL assay media (No phenol red, no FBS) per 75 starting flask. • Resuspend in 7 mL assay media (No phenol red, no FBS) per 175 flask • Make a 1:25 fold dilution. • Count by hemocytometer. • Every T75 flask set up should have approximately 75×10^6 parasites/flask (verify doubling time=8.7 hours±1 hour). • Every T175 flask set up should have approximately 175×10^6 parasites/flask (verify doubling time=8.7 hours±1 hour). • Require 46×10^6 parasites per 384 well plate (at 120,000 parasites per well). […]

APOL1 = target: T2, APOL1 (Homo sapiens, UniProt O14791); experiment: Multi-Tox Assay (MultiTox-Fluor Multiplex Cytotoxicity Assay in tet-inducible APOL1 T-REx-HEK293 cells; Table 46 does not say which APOL1 variant G0/G1/G2); assay type: cell-based; conditions: APOL1 variant not given; for pIC50: IP50 = IC50 for cell proliferation
T2 sequence (O14791 1-398 S342G/I384M): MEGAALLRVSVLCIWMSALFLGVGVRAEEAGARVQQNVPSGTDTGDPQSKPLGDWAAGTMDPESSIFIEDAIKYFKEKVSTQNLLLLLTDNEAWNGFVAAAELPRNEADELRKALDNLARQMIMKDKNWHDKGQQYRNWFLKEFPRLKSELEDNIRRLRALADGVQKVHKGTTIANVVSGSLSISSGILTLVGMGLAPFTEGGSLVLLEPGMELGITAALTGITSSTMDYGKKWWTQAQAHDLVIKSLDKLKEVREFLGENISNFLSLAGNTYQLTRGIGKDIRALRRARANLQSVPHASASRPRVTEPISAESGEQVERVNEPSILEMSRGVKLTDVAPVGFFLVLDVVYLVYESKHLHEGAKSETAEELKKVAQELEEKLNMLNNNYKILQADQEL

| Compound | pIC50 (APOL1 G1; Trypanosome Assay) | Emax (APOL1 G1; Trypanosome Assay) | pIC50 (APOL1) | Emax (APOL1 G1) | IC90 (APOL1) | Multi-Tox Assay Max Activity (%) (APOL1) |
| --- | --- | --- | --- | --- | --- | --- |
| COc1ccc(C2CC3(CC(C)N2)OCCc2cc(Cl)sc23)nn1 (mixture of isomers) [Compound 76] | > 7.30 | 106% | > 7.30 |  |  |  |
| COc1cccc(C2CC3(CC(C)N2)OCCc2cc(Cl)sc23)n1 (mixture of isomers) [Compound 135] | 6.30 to 7.30 | 94% | 6.30 to 7.30 |  |  |  |
| CC1CC2(CC(C)N1)OCCc1cc(Cl)sc12 (mixture of isomers) [Compound 194, 2-chloro-2′,6′-dimethyl-spiro[4,5-dihydrothieno[2,3-c]pyran-7,4′-piperidine]] | 6.30 to 7.30 |  | 6.30 to 7.30 | 117% |  |  |
| CC1CC2(CC(CO)N1)OCCc1cc(Cl)sc12 (mixture of isomers) [Compound 210, (2-chloro-6′-methyl-spiro[4,5-dihydrothieno[2,3-c]pyran-7,4′-piperidine]-2′-yl)methanol] | < 6.30 | 104% | < 6.30 |  |  |  |
| CC1CC2(CC(C3CC3)N1)OCCc1cc(Cl)sc12 (mixture of isomers) [Compound 211, (2S,6S)-2-chloro-2′-cyclopropyl-6′-methyl-spiro[4,5-dihydrothieno[2,3-c]pyran-7,4′-piperidine]] | 6.30 to 7.30 | 113% | > 7.30 |  | 50 to 500 nM | 99.6% |
| CC1CC2(CC(C(C)C)N1)OCCc1cc(Cl)sc12 (mixture of isomers) [Compound 214] | 6.30 to 7.30 | 109% | > 7.30 |  |  |  |
| CCC1CC2(CC(C)N1)OCCc1cc(Cl)sc12 (mixture of isomers) [Compound 215] | 6.30 to 7.30 | 112% | > 7.30 |  |  |  |
| CC1CC2(CC(C3CCOCC3)N1)OCCc1cc(Cl)sc12 (mixture of isomers) [Compound 216] | 6.30 to 7.30 | 104% | 6.30 to 7.30 |  |  |  |
| CC1CC2(CC(C3CC3)N1)OCCc1cc(Cl)sc12 (mixture of isomers) [Compound 217] | > 7.30 | 110% | > 7.30 |  |  |  |
| CC1CC2(CC(C3CCC3)N1)OCCc1cc(Cl)sc12 (mixture of isomers) [Compound 218] | 6.30 to 7.30 | 111% | > 7.30 |  |  |  |
| CC1CC2(CC(c3cccnc3)N1)OCCc1cc(Cl)sc12 (racemic) [Compound 20, 2-chloro-2′-methyl-6′-(3-pyridyl)spiro[4,5-dihydrothieno[2,3-c]pyran-7,4′-piperidine]] | > 7.30 |  | > 7.30 | 116% |  |  |
| Cc1cc([C@@H]2C[C@]3(C[C@H](C)N2)OCCc2cc(Cl)sc23)ccn1 (racemic) [Compound 21, (2S)-2-chloro-2′-methyl-6′-(2-methyl-4-pyridyl)spiro[4,5-dihydrothieno[2,3-c]pyran-7,4′-piperidine]] | > 7.30 | 108% | > 7.30 |  |  |  |
| CC1CC2(CC(c3cn(C)cn3)N1)OCCc1cc(Cl)sc12 (racemic) [Compound 22] | > 7.30 | 129% | > 7.30 |  | < 50 nM | 99.7% |
| Cc1noc2cc([C@@H]3C[C@]4(C[C@H](C)N3)OCCc3cc(Cl)sc34)ccc12 (racemic) [Compound 25] | > 7.30 | 109% | > 7.30 |  |  | 100.0% |
| C[C@H]1C[C@@]2(C[C@@H](c3cnc4c(cnn4C)c3)N1)OCCc1cc(Cl)sc12 (racemic) [Compound 26] | > 7.30 | 110% | > 7.30 |  |  | 100.0% |
| C[C@H]1C[C@@]2(C[C@@H](c3ccc4oc(=O)n(C)c4c3)N1)OCCc1cc(Cl)sc12 (racemic) [Compound 28] | > 7.30 | 104% | > 7.30 |  | < 50 nM | 100.0% |
| Cc1cc([C@@H]2C[C@]3(C[C@H](C)N2)OCCc2cc(Cl)sc23)no1 (racemic) [Compound 29] | > 7.30 | 109% | > 7.30 |  | < 50 nM | 100.0% |
| C[C@H]1C[C@@]2(C[C@@H](c3ccc4c(c3)n(C)c(=O)n4C)N1)OCCc1cc(Cl)sc12 (racemic) [Compound 32] | > 7.30 | 116% | > 7.30 |  | < 50 nM | 99.6% |
| COCCOCCOc1ccc([C@@H]2C[C@]3(C[C@H](C)N2)OCCc2cc(Cl)sc23)cc1 (racemic) [Compound 36] | > 7.30 | 118% | > 7.30 |  | < 50 nM | 100.0% |
| C[C@H]1C[C@@]2(C[C@@H](c3cn(C)nn3)N1)OC[C@H](O)c1cc(Cl)sc12 [Compound 177, (2′S,4R,6′S,7S)-2-chloro-2′-methyl-6′-(1-methyltriazol-4-yl)spiro[4,5-dihydrothieno[2,3-c]pyran-7,4′-piperidine]-4-ol] | 6.30 to 7.30 | 107% |  |  |  |  |
| C[C@H]1C[C@@]2(C[C@@H](c3cn(CC(=O)N4CCCCC4)nn3)N1)OCC(F)(F)c1cc(Cl)sc12 [Compound 356] |  |  | 6.30 to 7.30 |  | 50 to 500 nM | 99.0% |
| C[C@H]1C[C@@]2(C[C@@H](c3cn(CC4(CO)CC4)nn3)N1)OCC(F)(F)c1cc(Cl)sc12 [Compound 357] |  |  | 6.30 to 7.30 |  |  | 99.0% |
| C[C@H]1C[C@@]2(C[C@@H](c3cn(Cc4cnc5cnccn45)nn3)N1)OCC(F)(F)c1cc(Cl)sc12 [Compound 358] |  |  | > 7.30 |  |  | 98.0% |
| C[C@H]1C[C@@]2(C[C@@H](c3cn(CCCO)nn3)N1)OCC(F)(F)c1cc(Cl)sc12 [Compound 359] |  |  | > 7.30 |  |  | 98.0% |
| COc1ccc(Cn2cc([C@@H]3C[C@]4(C[C@H](C)N3)OCC(F)(F)c3cc(Cl)sc34)nn2)cn1 [Compound 360] |  |  | 6.30 to 7.30 |  |  | 99.0% |
